# Results from ChEMBL document CHEMBL1121488, “Effects of phosphonium compounds on Schistosoma mansoni” (1980).
# Assays:
# Schistosoma mansoni [1] = assay: Effect on the carbachol-induced paralytic response on Schistosoma mansoni at 10E-4 (phosphonium treated); format: functional; set-up: unit not given here
# Schistosoma mansoni [2] = assay: Percentage reduction in carbachol response on Schistosoma mansoni; format: functional
# Schistosoma mansoni [3] = assay: Probability that there was effect on carbachol response; format: functional
# Schistosoma mansoni [4] = assay: Probability that the compound had no effect on carbachol response; NS = no significant; format: functional, organism-based
SMILES,Activity (Schistosoma mansoni [1]),Reduction (Schistosoma mansoni [2]) [%],Probability (Schistosoma mansoni [3]),Probability (Schistosoma mansoni [4])
[Br-].[Br-].c1ccc([P+](CCCCCC[P+](c2ccccc2)(c2ccccc2)c2ccccc2)(c2ccccc2)c2ccccc2)cc1,-4.6,94.3,<0.001,–
Br.Br.CCCCCNCCC[PH](c1ccccc1)(c1ccccc1)c1ccccc1,-31.8,58.2,<0.001,–
[Br-].[Br-].c1ccc([P+](CCCCC[P+](c2ccccc2)(c2ccccc2)c2ccccc2)(c2ccccc2)c2ccccc2)cc1,-19.7,76.1,<0.001,–
N#CCCC[P+](c1ccccc1)(c1ccccc1)c1ccccc1.[Br-],-73,10.3,–,No significance
Br.Br.NCC[PH](c1ccccc1)(c1ccccc1)c1ccccc1,-67.8,14.6,–,No significance
[Br-].c1ccc(C[P+](c2ccccc2)(c2ccccc2)c2ccccc2)cc1,-55.1,27.1,<0.05,–
Br.Br.NCCCCC[PH](c1ccccc1)(c1ccccc1)c1ccccc1,-81.3,13.1,<0.05,–
[Br-].[Br-].c1ccc([P+](CC[P+](c2ccccc2)(c2ccccc2)c2ccccc2)(c2ccccc2)c2ccccc2)cc1,13.3,117.8,<0.001,–
Br.Br.CCNCCC[PH](c1ccccc1)(c1ccccc1)c1ccccc1,-72,18.6,<0.05,–
Br.Br.CCCNCCC[PH](c1ccccc1)(c1ccccc1)c1ccccc1,-71.7,0.97,–,No significance
BrCCC[P+](c1ccccc1)(c1ccccc1)c1ccccc1.[Br-],-35,45.3,<0.01,–
CC[P+](c1ccccc1)(c1ccccc1)c1ccccc1.[Br-] [ETHYLTRIPHENYLPHOSPHONIUM BROMIDE],-63.8,27,<0.02,–
Br.Br.CCCCNCCC[PH](c1ccccc1)(c1ccccc1)c1ccccc1,-70.3,22.8,<0.001,–
Br.Br.CCCCCCNCCC[PH](c1ccccc1)(c1ccccc1)c1ccccc1,-35.4,62.4,<0.0001,–
[Br-].[Br-].c1ccc([P+](CCC[P+](c2ccccc2)(c2ccccc2)c2ccccc2)(c2ccccc2)c2ccccc2)cc1,2,102.6,<0.001,–
